From patent US9796704B2, “Substituted quinazolines as receptor-type kinase inhibitors” (Symphony Evolution, Inc., priority 2002, dated 2017) come the findings set out here.

Assay [1] addresses EphA2 (Homo sapiens (Human), UniProt P29317). Put plainly: EphA2 kinase inhibition, luciferase-coupled chemiluminescent assay (LCCA). Particulars: read-out: EphA2 IC50.
Assay [2] concerns the target EphB4 (Homo sapiens (Human), UniProt P54760). Put plainly: EphB4 kinase inhibition, 33P phosphoryl transfer assay (radiometric). Format: biochemical. Here is the method: Phosphorylated substrate products are quantified by scintillation spectrometry.
Kinase activity and compound inhibition are investigated using one or more of the three assay formats described below. The ATP concentrations are selected near its Michaelis-Menten constant (KM) for each individual kinase. Dose-response experiments are performed at ten different inhibitor concentrations in a 384-well plate format. […] These parameters are obtained by nonlinear regression algorithm built into ActivityBase software (available from ID Business Solutions Ltd., of Guildford, Surrey, UK). ^33P Phosphoryl Transfer Assay (Radiometric)
Greiner 384-well white clear bottom high binding plates (available from Greiner Bio-One, Inc., of Longwood, Fla.) are coated with 2 μg/well of protein or peptide substrate in a 50 μL volume overnight at ambient temperature. […] The coating solution is aspirated and the plates are washed once with 50 μL of assay buffer and padded dry. Subsequently compounds and enzymes are mixed with γ ^33P-ATP (3.3 μCi/nmol) in a total volume of 20 uL in suitable assay buffers (see Table 2). For example the final EphB4 reaction solution contains 20 mM TrisHCl, pH 7.5, 10 mM MgCl2, 0.01% Triton X-100, 0.1 mM NaVO3, 5 nM EphB4 enzyme and 5 μM ATP. […] The plates are subsequently washed 6-12 times with PBST or TBS buffer.

Assay [3] deals with EGFR (Homo sapiens (Human), UniProt P00533). Put plainly: EGFR kinase inhibition, luciferase-coupled chemiluminescent assay (LCCA). To be noted: read-out: EGFR IC50.
EGFR, sequence (P00533 672-1210): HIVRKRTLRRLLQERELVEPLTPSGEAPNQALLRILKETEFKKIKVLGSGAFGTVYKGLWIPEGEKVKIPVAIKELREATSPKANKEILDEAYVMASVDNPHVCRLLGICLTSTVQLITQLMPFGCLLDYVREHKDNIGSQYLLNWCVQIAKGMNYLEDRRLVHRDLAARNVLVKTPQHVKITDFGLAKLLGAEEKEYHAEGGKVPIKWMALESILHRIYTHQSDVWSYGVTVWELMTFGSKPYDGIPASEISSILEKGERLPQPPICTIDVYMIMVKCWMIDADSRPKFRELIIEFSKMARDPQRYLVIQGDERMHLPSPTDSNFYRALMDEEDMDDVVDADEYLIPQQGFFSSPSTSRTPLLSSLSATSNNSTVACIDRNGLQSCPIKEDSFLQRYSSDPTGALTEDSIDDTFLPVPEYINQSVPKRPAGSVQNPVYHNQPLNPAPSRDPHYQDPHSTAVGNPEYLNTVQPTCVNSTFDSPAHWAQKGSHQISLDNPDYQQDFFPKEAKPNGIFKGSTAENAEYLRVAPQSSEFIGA

EphA2, sequence (P29317 598-890): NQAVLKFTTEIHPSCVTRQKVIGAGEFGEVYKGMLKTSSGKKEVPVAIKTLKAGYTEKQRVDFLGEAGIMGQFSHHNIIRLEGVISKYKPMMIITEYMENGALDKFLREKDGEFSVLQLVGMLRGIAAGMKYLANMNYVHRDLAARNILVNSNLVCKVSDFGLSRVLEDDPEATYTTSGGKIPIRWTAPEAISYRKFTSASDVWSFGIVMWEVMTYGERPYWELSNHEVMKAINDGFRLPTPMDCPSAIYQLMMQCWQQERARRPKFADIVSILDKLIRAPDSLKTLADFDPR
EphB4, sequence (P54760 605-890): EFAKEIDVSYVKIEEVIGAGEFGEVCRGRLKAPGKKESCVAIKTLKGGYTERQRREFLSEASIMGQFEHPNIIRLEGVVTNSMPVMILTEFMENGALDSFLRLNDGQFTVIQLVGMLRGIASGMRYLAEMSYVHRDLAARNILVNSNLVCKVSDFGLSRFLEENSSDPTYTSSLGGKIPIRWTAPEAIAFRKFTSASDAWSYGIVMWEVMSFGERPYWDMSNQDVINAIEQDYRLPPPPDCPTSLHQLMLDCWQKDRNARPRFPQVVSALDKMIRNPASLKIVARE

Take `COc1cc2c(Nc3cccc(Cl)c3F)ncnc2cc1O[C@H]1CO[C@H]2[C@@H]1OC[C@@H]2OC` [Example 71, 1,4:3,6-dianhydro-2-O-[4-[(3-chloro-2-fluorophenyl)amino]-6-(methyloxy)quinazolin-7-yl]-5-O-methyl-L-iditol]: the half-maximal inhibitory concentration (IC50) was 50 to 1000 nM in assay [1], 50 to 1000 nM in assay [2] and less than 50 nM in assay [3].

Turning to `CCN1CCCC1c1nc(COc2cc3ncnc(Nc4ccc(Cl)c(Cl)c4)c3cc2OC)no1` (stereo not drawn) [Example 264, N-(3,4-dichlorophenyl)-7-({[5-(1-ethylpyrrolidin-2-yl)-1,2,4-oxadiazol-3-yl]methyl}oxy)-6-(methyloxy)quinazolin-4-amine], the 50% inhibitory concentration (IC50) is 1000 to 20000 nM in assay [1], 50 to 1000 nM in assay [2] and less than 50 nM in assay [3].

Regarding `COc1cc2c(Nc3ccc(Cl)c(Cl)c3)ncnc2cc1OCC1CN(C(C)C)CCCO1` (stereo not drawn) [Example 261, N-(3,4-dichlorophenyl)-7-({[4-(1-methylethyl)-1,4-oxazepan-2-yl]methyl}oxy)-6-(methyloxy)quinazolin-4-amine], the half-inhibitory concentration (IC50) in assay [1] is 1000 to 20000 nM; in assay [2], 50 to 1000 nM; in assay [3], less than 50 nM.

As to `COc1cc2c(Nc3cc(Cl)c(Cl)cc3F)ncnc2cc1OC[C@@H]1CO[C@H]2[C@@H]1OC[C@@H]2OC` [Example 48, 1,4:3,6-dianhydro-5-deoxy-5-({[4-[(4,5-dichloro-2-fluorophenyl)amino]-6-(methyloxy)quinazolin-7-yl]oxy}methyl)-2-O-methyl-D-glucitol], the results for the IC50 in assay [1], in assay [2] and in assay [3] were 1000 to 20000 nM, 1000 to 20000 nM and less than 50 nM, respectively.

In the case of `COc1cc2c(Nc3cc(Cl)ccc3Cl)ncnc2cc1O[C@@H]1CO[C@@H]2[C@H]1OC[C@H]2F` [Example 118, 1,4:3,6-dianhydro-2-deoxy-5-O-[4-[(2,5-dichlorophenyl)amino]-6-(methyloxy)quinazolin-7-yl]-2-fluoro-D-iditol], the 50% inhibitory concentration (IC50) in assay [1], in assay [2] and in assay [3] was less than 50 nM throughout.

For `COc1cc2c(Nc3ccc(Cl)c(Cl)c3)ncnc2cc1OCC1CCCCC1` [Example 186, 7-[(cyclohexylmethyl)oxy]-N-(3,4-dichlorophenyl)-6-(methyloxy)quinazolin-4-amine], the concentration for half-maximal inhibition (IC50) in assay [1] was 50 to 1000 nM; in assay [2] it was less than 50 nM; in assay [3], less than 50 nM.

Take `COc1cc2c(Nc3cccc(Br)c3C)ncnc2cc1O[C@H]1CO[C@H]2[C@@H]1OC[C@@H]2OC` [Example 75, 1,4:3,6-dianhydro-2-O-[4-[(3-bromo-2-methylphenyl)amino]-6-(methyloxy)quinazolin-7-yl]-5-O-methyl-L-iditol]: the figures for the IC50 in assay [1], in assay [2] and in assay [3] were 50 to 1000 nM, less than 50 nM and less than 50 nM, respectively.

Regarding `COc1cc2c(Nc3ccc(Cl)c(Cl)c3)ncnc2cc1OCC1CN(C(C)C)CCO1` (stereo not drawn) [Example 270, N-(3,4-dichlorophenyl)-7-({[4-(1-methylethyl)morpholin-2-yl]methyl}oxy)-6-(methyloxy)quinazolin-4-amine], the IC50 in assay [1] is 1000 to 20000 nM; in assay [2], 50 to 1000 nM; in assay [3] it was less than 50 nM.

For the compound `COc1cc2c(Nc3ccc(Cl)c(Cl)c3)ncnc2cc1OCc1csc(N(C)C)n1` [Example 240, N-(3,4-dichlorophenyl)-7-({[2-(dimethylamino)-1,3-thiazol-4-yl]methyl}oxy)-6-(methyloxy)quinazolin-4-amine], the IC50 in assay [1] was 50 to 1000 nM; in assay [2] it was less than 50 nM; in assay [3] it was less than 50 nM.

As for `COc1cc2c(Nc3ccc(Cl)c(Cl)c3)ncnc2cc1OCc1csc(N2CCNCC2)n1` [Example 262, N-(3,4-dichlorophenyl)-6-(methyloxy)-7-{[(2-piperazin-1-yl-1,3-thiazol-4-yl)methyl]oxy}quinazolin-4-amine], the figures for the IC50 in assay [1], in assay [2] and in assay [3] were 1000 to 20000 nM, 50 to 1000 nM and less than 50 nM, respectively.

Regarding `CCN1CCN(c2noc(COc3cc4ncnc(Nc5ccc(Cl)c(Cl)c5)c4cc3OC)n2)CC1` [Example 220, N-(3,4-dichlorophenyl)-7-({[3-(4-ethylpiperazin-1-yl)-1,2,4-oxadiazol-5-yl]methyl}oxy)-6-(methyloxy)quinazolin-4-amine], the IC50 was 50 to 1000 nM in assay [1], 50 to 1000 nM in assay [2] and less than 50 nM in assay [3].

As for `CCN1CCCCC1c1nc(COc2cc3ncnc(Nc4ccc(Cl)c(Cl)c4)c3cc2OC)cs1` (stereo not drawn) [Example 253, N-(3,4-dichlorophenyl)-7-({[2-(1-ethylpiperidin-2-yl)-1,3-thiazol-4-yl]methyl}oxy)-6-(methyloxy)quinazolin-4-amine], the IC50 in assay [1] was 1000 to 20000 nM; in assay [2], 1000 to 20000 nM; in assay [3], less than 50 nM.

In the case of `COCCN1CCCOC(COc2cc3ncnc(Nc4ccc(Cl)c(Cl)c4)c3cc2OC)C1` (stereo not drawn) [Example 260, N-(3,4-dichlorophenyl)-6-(methyloxy)-7-[({4-[2-(methyloxy)ethyl]-1,4-oxazepan-2-yl}methyl)oxy]quinazolin-4-amine], the IC50 in assay [1] was 1000 to 20000 nM; in assay [2] it was 50 to 1000 nM; in assay [3], less than 50 nM.

On to `COc1cc2c(Nc3ccc(Cl)c(Cl)c3)ncnc2cc1OCC1CC1` [Example 182, 7-[(cyclopropylmethyl)oxy]-N-(3,4-dichlorophenyl)-6-(methyloxy)quinazolin-4-amine], for which the concentration for half-maximal inhibition (IC50) in assay [1] was 50 to 1000 nM; in assay [2], 50 to 1000 nM; in assay [3] it was less than 50 nM.

As to `COc1cc2c(Nc3ccc(Cl)c(Cl)c3)ncnc2cc1OCc1nc(N(C)C)no1` [Example 206, N-(3,4-dichlorophenyl)-7-({[3-(dimethylamino)-1,2,4-oxadiazol-5-yl]methyl}oxy)-6-(methyloxy)quinazolin-4-amine], the IC50 is 50 to 1000 nM in assay [1], 50 to 1000 nM in assay [2] and less than 50 nM in assay [3].

Regarding `COc1cc2c(Nc3ccc(Cl)c(Cl)c3)ncnc2cc1OCc1nc([C@@H]2CCCN2C)no1` [Example 265, N-(3,4-dichlorophenyl)-6-(methyloxy)-7-[({3-[(2S)-1-methylpyrrolidin-2-yl]-1,2,4-oxadiazol-5-yl}methyl)oxy]quinazolin-4-amine], the half-maximal inhibitory concentration (IC50) is 1000 to 20000 nM in assay [1], 50 to 1000 nM in assay [2] and less than 50 nM in assay [3].

In the case of `COc1cc2c(Nc3ccc(Cl)c(Cl)c3)ncnc2cc1OCc1csc([C@@H]2CSCN2)n1` [Example 248, N-(3,4-dichlorophenyl)-6-(methyloxy)-7-[({2-[(4S)-1,3-thiazolidin-4-yl]-1,3-thiazol-4-yl}methyl)oxy]quinazolin-4-amine], the IC50 in assay [1] is 50 to 1000 nM; in assay [2] it was 50 to 1000 nM; in assay [3], less than 50 nM.

In the case of `COc1cc2c(Nc3ccc(Cl)c(Cl)c3)ncnc2cc1OCc1nc(-c2cccnc2)cs1` [Example 201, N-(3,4-dichlorophenyl)-6-(methyloxy)-7-{[(4-pyridin-3-yl-1,3-thiazol-2-yl)methyl]oxy}quinazolin-4-amine], the concentration for half-maximal inhibition (IC50) in assay [1] is 50 to 1000 nM; in assay [2] it was 50 to 1000 nM; in assay [3], less than 50 nM.

For `COc1cc2c(Nc3ccc(Cl)c(Cl)c3)ncnc2cc1OCc1nc(CN2CCOCC2)cs1` [Example 209, N-(3,4-dichlorophenyl)-6-(methyloxy)-7-({[4-(morpholin-4-ylmethyl)-1,3-thiazol-2-yl]methyl}oxy)quinazolin-4-amine], the values for the half-inhibitory concentration (IC50) in assay [1], in assay [2] and in assay [3] were 50 to 1000 nM, less than 50 nM and less than 50 nM, respectively.
